Source: patent US20190233884A1 (University of Southern California, priority 2016, published 2019)

System: patients with refractory metastatic colorectal cancer (mCRC)
Assay: TAS-102-related toxicity (neutropenia, leukopenia, anemia, anorexia, nausea, diarrhea; CTCAE grade) in training/evaluation and testing/validation cohorts, association with SNPs
Format: in vivo, human
Details: for frequency of Gr3≤ neutropenia: evaluation cohort; for incidence of Gr3≤ neutropenia: validation cohort
Source text: Such effects include but are not limited to febrile neutropenia, leukopenia, stomatitis, neutropenia, hand-foot syndrome, cardiac ischemia, thrombocytopenia, increase in alanine aminotransferase level, increase in aspartate aminotransferase level, increase in total bilirubin, increase in alkaline phosphatase level, increase in creatinine level, anemia, anorexia, nausea, vomiting, decreased appetite, fatigue, abdominal pain, fever, asthenia, and diarrhea. […] “Subchronic” toxicity is the ability of a drug substance to cause harmful or adverse effects for […] but less than the lifetime of the exposed organism. “Chronic” toxicity is the ability of a drug substance or combination therapy to cause harmful effects over an extended period, usually upon repeated or continuous exposure, sometimes lasting for the entire life of the exposed organism. Adverse events are classified and graded by severity. Grade 1 adverse events: mild; asymptomatic or mild symptoms; clinical or diagnostic observations only; intervention not indicated. Grade 2 adverse events: moderate; minimal, local or noninvasive intervention indicated; limiting age-appropriate instrumental activities of daily living (ADL). Grade 3 adverse events: severe or medically significant but not immediately life-threatening; hospitalization or prolongation of hospitalization indicated; disabling; limiting self care activities of daily living. Grade 4 adverse events: life-threatening consequences; urgent intervention indicated. Grade 5 adverse event: death related to AE (Department of Health and Human Services, National Institutes of Health, National Cancer Institute. Common terminology criteria for adverse events (CTCAE) v4.03. 2010).
The primary endpoint in this study was progression-free survival (PFS), and the secondary endpoints were overall survival (OS) and disease control rate (DCR). PFS was calculated from the date of starting treatment to the first observation of disease progression or death from any cause. If a patient had no disease progression or death, PFS was censored at the date of last follow up. OS was calculated from the date of starting treatment until the date of death from any cause or the date of the last follow-up, at which point OS was censored. The disease control rate (DCR) was defined as the proportion of patients who achieved a stable disease (SD) or […] according to RECISTv1.1. Chi-square test was used to examine the difference in baseline patient characteristics among the three cohorts. Allelic distribution of all SNPs by ethnicity for deviation from Hardy-Weinberg equilibrium and the allelic frequencies of SNPs were tested using the Chi-square tests with one degree of freedom. The associations between candidate SNPs and disease control, and toxicities were examined using contingency tables and Fisher's exact test. The associations of SNPs with PFS and OS were analysed using Kaplan-Meier curves and the log-rank test. Because the true mode of inheritance of candidate SNPs was not established yet, a codominant or dominant genetic model if appropriate was considered.
All patients underwent the treatment in salvage-line setting. […] In all patients, adverse events were graded according to the Common Terminology Criteria for Adverse Events, version 4.0.
The primary endpoint in this study was progression-free survival (PFS), and the secondary endpoints were overall survival (OS) and disease control rate (DCR). […] Data of patients without disease progression or death were censored at the date of last follow up. OS was calculated from the date of starting treatment until the date of death from any cause. In patients who were lost to follow-up, data were censored at the date of last follow up. The disease control rate (DCR) was defined as the proportion of patients who achieved a stable disease (SD) or […] according to RECIST v1.1.

**Q.** What does the source list for Trifluridine/tipiracil [TAS-102]?
**A.** frequency of Gr3≤ neutropenia (ATM rs609429 C/C (n=4/14)): 29%; frequency of Gr3≤ neutropenia (ATM rs609429 any G allele (n=16/38)): 42%; incidence of grade 2≤ neutropenia (training cohort): 61.5%; incidence of grade 3≤ neutropenia (training cohort): 38.5%; frequency of Gr2< neutropenia (training cohort, hENT1 rs760370 A/A (n=12/27)): 44%; frequency of Gr2< neutropenia (training cohort, hENT1 rs760370 any G allele (n=20/25)): 80%; treatment delay caused by neutropenia (training cohort, share of treatment delays (22/24)): 91.8%; incidence of Gr3≤ neutropenia (ATM rs609429 C/C (n=13/51)): 26%; incidence of Gr3≤ neutropenia (ATM rs609429 any G allele (n=34/78)): 44%
